From patent publication US20140271734A1, “BILE ACID RECYCLING INHIBITORS FOR TREATMENT OF BARRETT'S ESOPHAGUS AND GASTROESOPHAGEAL REFLUX DISEASE” (LUMENA PHARMACEUTICALS, INC., priority 2013, published 2014)
Like-named read-outs stand apart in the source and are kept apart here.

Experiment: Toxicokinetics of LUM001 free form, 13-week oral capsule toxicity study in dogs
Assay type: in vivo, Beagle dogs
Parameters: AUC/Dose / Cmax/Dose: unit not given here
Settings: for Cmax / Tmax / AUC(0-t): Beagle, dog, plasma, oral; for AUC(0-t): read-out: AUC(0-24 h), mean
Method: Six- to seven-month old Beagle dogs of body weights of 4.9-9.5 kg (4/sex/group) orally via capsules at 0, 5, 20 or 100 mg/kg for 13 consecutive weeks. Plasma levels of LUM001 (free form) were evaluated on Days 1 and 91. LUM001 was administered by once daily oral gelatin capsules. […] therefore, 105% of a stated dose is given to provide the appropriate amount of compound for dosing. On study Day 1 and Day 91, approximately 2 mL of venous blood was collected in heparinized tubes from the cephalic vein of each animal at 1, 2, 3, 5, 8, and 24 hours post-dose. Blood collection tubes were mixed and placed on ice during the collection period after which they were centrifuged and the plasma was harvested into cryotubes within approximately 60 minutes of blood collection. Plasma samples were stored at approximately −70° C. or lower until analyzed.
The concentration of LUM001 free form in plasma were determined using an LCMSMS method. The assay sensitivity was 5.00 ng/mL for a […] sample.

[1] = both sexes, 5 mg/kg, Day 1, 5 mg/kg, Comb
[2] = both sexes, 5 mg/kg, Day 91, 5 mg/kg, Comb
[3] = both sexes, 20 mg/kg, Day 1, 20 mg/kg, Comb
[4] = both sexes, 20 mg/kg, Day 91, 20 mg/kg, Comb
[5] = both sexes, 100 mg/kg, Day 1, 100 mg/kg, Comb
[6] = both sexes, 100 mg/kg, Day 91, 100 mg/kg, Comb
[7] = female, 5 mg/kg, Day 1, 5 mg/kg, F
[8] = female, 20 mg/kg, Day 1, 20 mg/kg, F
[9] = female, 20 mg/kg, Day 91, 20 mg/kg, F
[10] = female, 100 mg/kg, Day 1, 100 mg/kg, F
[11] = female, 100 mg/kg, Day 91, 100 mg/kg, F
[12] = male, 5 mg/kg, Day 1, 5 mg/kg, M
[13] = male, 5 mg/kg, Day 91, 5 mg/kg, M
[14] = male, 20 mg/kg, Day 1, 20 mg/kg, M
[15] = male, 20 mg/kg, Day 91, 20 mg/kg, M
[16] = male, 100 mg/kg, Day 1, 100 mg/kg, M
[17] = male, 100 mg/kg, Day 91, 100 mg/kg, M

Compound: CCCCC1(CCCC)CS(=O)(=O)c2ccc(N(C)C)cc2[C@@H](c2ccc(OCc3ccc(C[N+]45CCN(CC4)CC5)cc3)cc2)[C@H]1O [LUM001]
- AUC/Dose (Day 1, 5 mg/kg, Comb): 3.55
- BA (Day 1, 5 mg/kg, Comb): 0.1%
- Cmax/Dose (Day 1, 5 mg/kg, Comb): 1.81
- AUC/Dose (Day 1, 5 mg/kg, F): 4.17
- BA (Day 1, 5 mg/kg, F): <0.1%
- Cmax/Dose (Day 1, 5 mg/kg, F): 1.87
- AUC/Dose (Day 1, 5 mg/kg, M): 2.92
- BA (Day 1, 5 mg/kg, M): <0.1%
- Cmax/Dose (Day 1, 5 mg/kg, M): 1.76
- AUC/Dose (Day 1, 20 mg/kg, Comb): 3.63
- BA (Day 1, 20 mg/kg, Comb): 0.1%
- Cmax/Dose (Day 1, 20 mg/kg, Comb): 1.25
- AUC/Dose (Day 1, 20 mg/kg, F): 2.43
- BA (Day 1, 20 mg/kg, F): <0.1%
- Cmax/Dose (Day 1, 20 mg/kg, F): 1.27
- AUC/Dose (Day 1, 20 mg/kg, M): 4.84
- BA (Day 1, 20 mg/kg, M): <0.1%
- Cmax/Dose (Day 1, 20 mg/kg, M): 1.24
- AUC/Dose (Day 1, 100 mg/kg, Comb): 2.39
- BA (Day 1, 100 mg/kg, Comb): <0.1%
- Cmax/Dose (Day 1, 100 mg/kg, Comb): 0.907
- AUC/Dose (Day 1, 100 mg/kg, F): 3.44
- BA (Day 1, 100 mg/kg, F): <0.1%
- Cmax/Dose (Day 1, 100 mg/kg, F): 1.17
- AUC/Dose (Day 1, 100 mg/kg, M): 1.34
- BA (Day 1, 100 mg/kg, M): <0.1%
- Cmax/Dose (Day 1, 100 mg/kg, M): 0.648
- AUC/Dose (Day 91, 5 mg/kg, Comb): 0.350
- BA (Day 91, 5 mg/kg, Comb): <0.1%
- Cmax/Dose (Day 91, 5 mg/kg, Comb): 0.350
- AUC/Dose (Day 91, 5 mg/kg, F): 0.00
- BA (Day 91, 5 mg/kg, F): <0.1%
- Cmax/Dose (Day 91, 5 mg/kg, F): 0.00
- AUC/Dose (Day 91, 5 mg/kg, M): 0.700
- BA (Day 91, 5 mg/kg, M): <0.1%
- Cmax/Dose (Day 91, 5 mg/kg, M): 0.700
- AUC/Dose (Day 91, 20 mg/kg, Comb): 2.54
- BA (Day 91, 20 mg/kg, Comb): 0.1%
- Cmax/Dose (Day 91, 20 mg/kg, Comb): 1.19
- AUC/Dose (Day 91, 20 mg/kg, F): 2.70
- BA (Day 91, 20 mg/kg, F): <0.1%
- Cmax/Dose (Day 91, 20 mg/kg, F): 1.25
- AUC/Dose (Day 91, 20 mg/kg, M): 2.38
- BA (Day 91, 20 mg/kg, M): <0.1%
- Cmax/Dose (Day 91, 20 mg/kg, M): 1.13
- AUC/Dose (Day 91, 100 mg/kg, Comb): 5.03
- BA (Day 91, 100 mg/kg, Comb): 0.2%
- Cmax/Dose (Day 91, 100 mg/kg, Comb): 1.40
- AUC/Dose (Day 91, 100 mg/kg, F): 6.01
- BA (Day 91, 100 mg/kg, F): <0.1%
- Cmax/Dose (Day 91, 100 mg/kg, F): 1.82
- AUC/Dose (Day 91, 100 mg/kg, M): 4.05
- BA (Day 91, 100 mg/kg, M): <0.1%
- Cmax/Dose (Day 91, 100 mg/kg, M): 0.974
- Cmax [1]: 9.07 ng/mL
- Tmax [1]: 1.5 h
- AUC(0-t) [1]: 17.7 ng·h/mL
- Cmax [2]: 1.75 ng/mL
- Tmax [2]: 0.375 h
- AUC(0-t) [2]: 1.75 ng·h/mL
- Cmax [3]: 25.1 ng/mL
- Tmax [3]: 2.13 h
- AUC(0-t) [3]: 72.6 ng·h/mL
- Cmax [4]: 23.8 ng/mL
- Tmax [4]: 1.88 h
- AUC(0-t) [4]: 50.8 ng·h/mL
- Cmax [5]: 90.7 ng/mL
- Tmax [5]: 1.38 h
- AUC(0-t) [5]: 239 ng·h/mL
- Cmax [6]: 140 ng/mL
- Tmax [6]: 2 h
- AUC(0-t) [6]: 503 ng·h/mL
- Cmax [7]: 9.34 ng/mL
- Tmax [7]: 1.25 h
- AUC(0-t) [7]: 20.9 ng·h/mL
- Tmax (female, 5 mg/kg, Day 91, 5 mg/kg, F): 0 h
- Cmax [8]: 25.3 ng/mL
- Tmax [8]: 2 h
- AUC(0-t) [8]: 48.5 ng·h/mL
- Cmax [9]: 25 ng/mL
- Tmax [9]: 2 h
- AUC(0-t) [9]: 53.9 ng·h/mL
- Cmax [10]: 117 ng/mL
- Tmax [10]: 1.5 h
- AUC(0-t) [10]: 344 ng·h/mL
- Cmax [11]: 182 ng/mL
- Tmax [11]: 1.75 h
- AUC(0-t) [11]: 601 ng·h/mL
- Cmax [12]: 8.79 ng/mL
- Tmax [12]: 1.75 h
- AUC(0-t) [12]: 14.6 ng·h/mL
- Cmax [13]: 3.5 ng/mL
- Tmax [13]: 0.75 h
- AUC(0-t) [13]: 3.5 ng·h/mL
- Cmax [14]: 24.8 ng/mL
- Tmax [14]: 2.25 h
- AUC(0-t) [14]: 96.7 ng·h/mL
- Cmax [15]: 22.6 ng/mL
- Tmax [15]: 1.75 h
- AUC(0-t) [15]: 47.6 ng·h/mL
- Cmax [16]: 64.8 ng/mL
- Tmax [16]: 1.25 h
- AUC(0-t) [16]: 134 ng·h/mL
- Cmax [17]: 97.4 ng/mL
- Tmax [17]: 2.25 h
- AUC(0-t) [17]: 405 ng·h/mL
